The text below walks through data of patent publication US6903132B2, “Non-peptide GnRH agents, pharmaceutical compositions and methods for their use” (Agouron Pharmaceuticals, Inc., priority 2002, dated 2005).

Molecules are shown by their SMILES.

What all share (test): Radioligand binding assay: inhibition of binding of 125I-GnRH-A to GnRH receptors (membranes)
The target of assay [1] is T1, human GnRH receptors (Homo sapiens, UniProt P30968).
T1 construct: expressed in transfected cells; host or cells: HEK 293
T1 sequence (P30968 1-328): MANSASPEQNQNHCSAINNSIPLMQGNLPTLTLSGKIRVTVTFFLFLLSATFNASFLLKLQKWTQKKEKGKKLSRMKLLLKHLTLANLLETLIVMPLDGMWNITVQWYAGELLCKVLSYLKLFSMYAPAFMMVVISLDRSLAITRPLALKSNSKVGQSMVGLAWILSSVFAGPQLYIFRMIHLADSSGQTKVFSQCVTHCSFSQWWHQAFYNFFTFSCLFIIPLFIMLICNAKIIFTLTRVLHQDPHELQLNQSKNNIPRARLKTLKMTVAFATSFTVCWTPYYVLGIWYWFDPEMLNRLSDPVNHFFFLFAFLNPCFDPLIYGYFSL
The conditions noted are these: Human GnRH receptor; competition with 125I-GnRH-A; Ki calculated from IC50 (Cheng et al.). On the procedure: (§1) HEK 293 cells stably transfected with mouse or human GnRH receptors as described above are grown in Dulbecco's high-glucose, modified Eagle's medium (DMEM) supplemented with 0.2% G418, 10% fetal bovine serum (FBS) and 100U/mL penicillin/streptomycin. GH3 cells stably transfected with the rat GnRH receptor (GGH3) were provided by Dr. William Chin (Harvard Medical School, Boston, Mass.). These cells are extensively characterized previously (Kaiser et al., 1997). The cells are grown in low glucose DMEM containing: 100U/mL penicillin/streptomycin, 0.6% G418 and 10% heat-inactivated FBS.
(§2) HEK 293 cells containing mouse or human receptors, or rat pituitaries (Pel Freez Biologicals, Rogers, Ark.) are homogenized in buffer A containing: 50 mM Tris (pH 7.4), 0.32 M sucrose, 2 mM EGTA, 1 mM PMSF, 5 μg/ml aprotinen, 5 μg/ml Pepstatin A, and 1 μg/ml leupeptin. Homogenized cells are centrifuged at 4° C. at 20,000×g for 25 minutes, re-suspended in buffer A and re-centrifuged at 4° C. at 20,000×g for an additional 25 minutes. Total membrane protein was determined with a BCA kit (Pierce, Rockford, Ill.). Membranes are stored at −70° C. at a final membrane protein concentration of approximately 5 mg/ml.
(§3) The radioiodinated agonist analog of GnRH, [des-Gly^10, D-Ala^6]GnRH ethylamide (^125I-GnRH-A), is used as the radioligand. One μg of GnRH-A diluted in 0.5 M phosphate buffer (pH 7.4) is added to an lodogen®-coated borosilicate glass tube (Pierce, Rockford, Ill.) containing 35 μl of 0.05 M phosphate buffer (pH 7.4-7.6) and 1 mCi of Na[^125I]. The reaction mixture is vortexed and incubated for 1 minute at room temperature. After one minute, the mixture is vortexed and allowed to incubate for an additional minute. 2 ml of 0.5 M acetic acid/1% BSA is added to the reaction tube and the mixture is added to a C18 Sep-Pak cartridge. The cartridge is washed with subsequent washes of 5 ml H2O and 5 ml 0.5 M acetic acid and then eluted with 5×1 ml of 60%CH3CN/40% 0.5 M acetic acid. The eluate is diluted with 3× volume of HPLC buffer A (0.1% TFA in H2O) and loaded onto a C18 column. The iodinated product is eluted over 20-25 min with a gradient of 25-100% CH3CN containing 0.1% TFA. The radioactive fractions (750 μl/fraction) are collected into clean polypropylene tubes containing 100 μl of 10% BSA. Fractions are assessed for biological activity by radiolig and binding. Specific activity of the radioligand was approximately 2200 Ci/mmol.
(§4) Membranes are diluted to 0.01-0.5 mg/ml (depending upon the species of receptor) with assay buffer containing 50 mM HEPES (pH 7.4), 1 mM EDTA, 2.5 mM MgCl2, and 0.1% BSA. Membranes (diluted to utilize similar receptor numbers between assays) are incubated with approximately 0.04-0.06 nM ^125I-GnRH-A in the presence or absence of competing agents (0.1-10,000 nM) in a total volume of 200 μl in 96-well polypropylene plates for 1 hour at room temperature. Assays are stopped by rapid filtration onto 96-well GF/C filters soaked in 0.1% polyethylenimine (PEI) utilizing a Packard 96-well cell harvester. Filters are washed three times with ice-cold PBS (50 mM NaPO4, 0.9% NaCl, 2 mM MgCl2, and 0.02% NaN3, pH 7.4). 35 μl of scintillation cocktail is added to each filter well and filters are counted on a Packard Topcount. Control dose-response curves are generated to GnRH (0.1 nM-100 nM) in each competition binding experiment. Ki values were calculated from IC50 values according to Cheng et al., Biochemical Pharmacol. 22: 3099-3108, 1973. [formula]

Assay [2] has as its target T2, rat GnRH receptor (Rattus norvegicus, UniProt P30969).
T2 construct: rat pituitaries (Pel Freez Biologicals, Rogers, Ark.) are homogenized in buffer A; tissue Pel Freez Biologicals; host or cells: rat pituitaries
T2 sequence (P30969 1-327): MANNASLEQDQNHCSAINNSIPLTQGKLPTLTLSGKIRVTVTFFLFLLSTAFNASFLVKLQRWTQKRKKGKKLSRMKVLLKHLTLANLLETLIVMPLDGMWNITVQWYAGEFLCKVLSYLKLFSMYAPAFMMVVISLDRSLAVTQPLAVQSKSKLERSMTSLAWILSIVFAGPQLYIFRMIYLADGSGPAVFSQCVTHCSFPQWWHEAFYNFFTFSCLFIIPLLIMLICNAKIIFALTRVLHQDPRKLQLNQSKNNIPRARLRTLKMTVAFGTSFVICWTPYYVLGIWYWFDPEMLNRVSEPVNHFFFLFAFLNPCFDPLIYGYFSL
The conditions noted are these: competition with 125I-GnRH-A, Ki calculated from IC50 (Cheng et al.). The protocol:
as §1, §2, §3, §4

Assay [3] addresses T3, mouse GnRH receptors (Mus musculus, UniProt Q01776).
T3 construct: expressed in transfected cells; host or cells: HEK 293
T3 sequence (Q01776 1-327): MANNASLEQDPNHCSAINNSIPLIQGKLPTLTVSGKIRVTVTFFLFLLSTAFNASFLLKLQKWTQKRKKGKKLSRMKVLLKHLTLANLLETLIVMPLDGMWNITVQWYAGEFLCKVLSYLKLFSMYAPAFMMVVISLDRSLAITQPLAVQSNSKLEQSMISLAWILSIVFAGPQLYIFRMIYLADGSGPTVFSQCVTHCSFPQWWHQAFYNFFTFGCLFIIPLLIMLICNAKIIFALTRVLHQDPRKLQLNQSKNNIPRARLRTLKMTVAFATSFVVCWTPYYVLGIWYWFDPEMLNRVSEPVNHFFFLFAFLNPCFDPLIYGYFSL
To be noted: Mouse GnRH receptor; competition with 125I-GnRH-A; Ki calculated from IC50 (Cheng et al.). On the procedure:
as §1, §2, §3, §4

As for `Cc1cc2c(cc1Cc1ccc(C(=O)NNc3cc(C)c4c(C)nn(C)c4n3)o1)C(C)(C)CC2(C)C` [Example J15, 5-[(1,1,3,3,6-pentamethyl-2,3-dihydro-1H-inden-5-yl)methyl]-N-(1,3,4-trimethyl-1H-pyrazdo[3,4-b]Pyridin-6-yl)-2-furohydrazide], the Ki in assay [1] was 0.9 nM; in assay [2], 2 nM; in assay [3] it was 3.3 nM.
In the same order, the values of `Cc1cc2c(cc1Oc1ccc(C(=O)NNc3cc(C)c4c(C)nn(C)c4n3)o1)C(C)(C)C(C)C2(C)C` (stereo not shown) [Example M4, 5-(1,1,2,3,3,6-Hexamethyl-indan-5-yloxy)-furan-2-carboxylic acid N′-(1,3,4-trimethyl-1H-pyrazolo[3,4-b]pyridin-6-yl)-hydrazide] are 1.8 nM, 3.9 nM and 3.7 nM.
Consider `Cc1cc(NNC(=O)c2ccc(Oc3cc(C(C)(C)C)ccc3Br)o2)nc2c1c(C)nn2C` [Example I6, 5-(2-Bromo-5-tert-butyl-phenoxy)-furan-2-carboxylic acid N′-(1,3,4-trimethyl-1H-pyrazolo[3,4-b]pyridin-6-yl)-hydrazide], for which the Ki was 50 nM in assay [1], 79 nM in assay [2] and 61 nM in assay [3].
The matching figures for `Cc1cc2c(cc1Cc1ccc(C(=O)NNc3ncc(C(F)(F)F)cc3Cl)o1)C(C)(C)CCC2(C)C` [Example C12, N′-[3-Chloro-5-(trifluoromethyl)-2-pyridinyl]-5-[(3,5,5,8,8-pentamethyl-5,6,7,8-tetrahydro-2-naphthalenyl)methyl]-2-furohydrazide]: 46 nM, 39 nM and 33 nM.
The matching figures for `Cc1cc2c(cc1Oc1ccc(C(=O)NNc3cc(C)c4c(C)nn(C)c4n3)o1)C(C)(C)OC2` [Example N2, 5-(3,3,6-Trimethyl-1,3-dihydro-isobenzofuran-5-yloxy)-furan-2-carboxylic acid N′-(1,3,4-trimethyl-1H-pyrazolo[3,4-b]pyridin-6-yl)-hydrazide]: 28 nM, 86 nM and 22 nM.
Turning to `Cc1cc2c(c(Br)c1Oc1ccc(C(=O)NNc3cc(C)c4c(C)nn(C)c4n3)o1)C(C)(C)CCC2` [Example I11, 5-(1-Bromo-3,8,8-trimethyl-5,6,7,8-tetrahydro-naphthalen-2-yloxy)-furan-2-carboxylic acid N′-(1,3,4-trimethyl-1H-pyrazolo[3,4-b]pyridin-6-yl)-hydrazide], the results for the inhibition constant (Ki) in assay [1], in assay [2] and in assay [3] were 170 nM, 790 nM and 250 nM, respectively.
The matching figures for `Cc1cc(NNC(=O)c2ccc(Oc3cc(C(C)(C)C)c(Br)cc3Br)o2)nc2c1c(C)nn2C` [Example I12, 5-(2,4-Dibromo-5-tert-butyl-phenoxy)-furan-2-carboxylic acid N′-(1,3,4-trimethyl-1H-pyrazolo[3,4-b]pyridin-6-yl)-hydrazide]: 165 nM, 1160 nM and 260 nM.
As to `Cc1cc2c(cc1Oc1ccc(C(=O)NNc3ncnc4scc(C)c34)o1)C(C)(C)CC(C)C2(C)C` (stereo not shown) [Example I15, 5-(3,5,5,6,8,8-Hexamethyl-5,6,7,8-tetrahydro-naphthalen-2-yloxy)-furan-2-carboxylic acid N′-(5-methyl-thieno[2,3-d]pyrimidin-4-yI)-hydrazide], the Ki in assay [1] was 7.2 nM; in assay [2], 19 nM.
As to `Cc1cc2c(cc1Oc1ccc(C(=O)NNc3ccc4ccccc4n3)o1)C(C)(C)OC2` [Example N3, 5-(3,3,6-Trimethyl-1,3-dihydro-isobenzofuran-5-yloxy)-furan-2-carboxylic acid N′-quinolin-2-yl-hydrazide], the figures for the Ki in assay [1] and in assay [2] were 130 nM and 100 nM, respectively.
